Source: US9522167B2, “Alphanizomenon flos aquae preparation, extracts and purified components thereof for the treatment of neurological, neurodegenerative and mood disorders” (Nutratec, s.r.l., priority 2006, dated 2016)

Experiments:
MAO-B = settings: literature values (ref. 45), cited from earlier work; for IC50: read-out: IC50 of MAO-B inhibition; for Ki: read-out: Ki of MAO-B inhibition
neurons = assay: Neuroprotection against glutamate-induced apoptosis of cultured neurons (DAPI staining); type: cell-based; settings: glutamate 100 μM plus 10 μM glycine, 30 min pre-incubation, apoptosis after 24 h
Method: The exposure of neurons to glutamate was carried according to a slightly modified method (50): culture medium was removed and neurons were washed once with prewarmed 37° C. buffered Hanks' solution (5.26 mM KCl, 0.43 mM KH2H2PO4, 132.4 mM NaCl, 4.09 mM NaHCO3, 0.33 mM Na2HPO4, 20 mM glucose, 2 mM CaCl2, and 20 mM HEPES, pH 7.4) and pre-incubated in the absence or presence of several concentrations of AFA extract (1-50 nM), PC (10-1000 nM), PCB (10-1000 nM) and MAA (1-10 μM) in prewarmed 37° C. buffered Hanks' solution. After 30 min of pre-incubation, L-glutamate was added from concentrated solutions to the final concentration indicated 100 μM plus 10 μM glycine. […]
Apoptosis was assessed by staining the nuclei of cells with DAPI (50), a membrane-permeable fluorescent dye that binds DNA and allows quantification of apoptotic neurons, i.e., neurons displaying fragmented or condensed nuclei. […] Cells were scored for chromatin condensation by fluorescence microscopy, using a fluorescein filter (330-380 excitation; 30× magnification). Total and apoptotic nuclei were counted. In all cases, approximately 600-1,000 cells were counted per well by an operator blind to the protocol design. Measurements from individual cultures were performed in duplicate and results are expressed as the mean S.E.M. values for the number of culture preparations indicated. […]

Molecule: Cc1cc(O)c2c(c1)C(=O)c1cc(O)cc(O)c1C2=O [Emodin]
- Inhibition type (MAO-B): Mixed
- IC50 (MAO-B): 35.4 µM
- Ki (MAO-B): 15.1 µM

Molecule: COc1ccc(C(C)=O)c(O)c1 [Paeonol]
- Inhibition type (MAO-B): Competitive
- IC50 (MAO-B): 42.5 µM
- Ki (MAO-B): 38.2 µM

Molecule: phycocyanobilin [PCB]
- amount lowering apoptosis below the control level (neurons): approximately 10 nM

Molecule: Epicatechine
- Inhibition type (MAO-B): Mixed
- IC50 (MAO-B): 58.9 µM
- Ki (MAO-B): 21 µM

Molecule: Oc1cc(O)c2c(c1)OC(c1ccc(O)c(O)c1)C(O)C2 (stereo not drawn) [Catechine]
- Inhibition type (MAO-B): Mixed
- IC50 (MAO-B): 88.6 µM
